In PMC11915855, “The flavonoid-sensing regulator AefR is involved in modulating quorum sensing through repressing the MexEF-OprN efflux pump in Pseudomonas fluorescens” (mSystems, 2025):
Where two headings read alike, the source gives them in different places.

Experiments:
AefR [1] = target: T1, AefR; assay: ITC with purified His6-AefR; supported by EMSA (disrupts AefR-pmexEF-oprN interaction at […]); type: binding, Pseudomonas fluorescens
T1 construct: His6-AefR (aefR gene in a pET-28b-derived vector)

AefR [2] = target: T1, AefR; assay: as above; type: binding, Pseudomonas fluorescens; remark: listed apart in the source

SMILES	Kd (AefR [1]) [µM]	Kd (AefR [2]) [µM]
O=c1c(O)c(-c2ccc(O)c(O)c2)oc2cc(O)cc(O)c12 [quercetin]	640	–
O=c1cc(-c2ccc(O)cc2)oc2cc(O)cc(O)c12 [apigenin]	–	162
O=C(CCc1ccc(O)cc1)c1c(O)cc(O)cc1O [phloretin]	2.79	–
